# Reference: US12098145B2 (Libra Therapeutics, Inc., priority 2022, dated 2024)
# Biological target: T1, TRPML1 (Homo sapiens, UniProt Q9GZU1)
# T1 construct: expressed in transfected cells; host or cells: HEK T-REx cells stably expressing GCaMP6f and TRPML1
# Experiment: Cellular TRPML1 assay (FLIPR, GCaMP6f calcium read-out)
# Assay type: cell-based
# Details: HEKT-REx/GCaMP6f/TRPML1 cells, FLIPR TETRA, kinetic response over 300 seconds; read-out: TRPML1 FLIPR pEC50 (converted)
# Description: Example A: Cellular TRPML1 Assay
# The final clone for the TRPML1 assay is HEKT-REx/GCaMP6f/TRPML1. GCaMP6f is a genetically encoded calcium indicator that is stably expressed in this cell line and used as a fluorescent read-out.
# Experiments were performed in 384 MTP format. Cells are seeded at 15000 cells/well in 20 μl/well of Optimem+0.5% FBS without selection antibiotics. Twenty-four hours later, cells are assayed for the response to various compounds using the Ca^2+ sensitive GCaMP6f protein stably expressed in the cells as readout.
# The experiment was performed in a 384-well format according to the following procedures: • 24 h after seeding, the cells were pre-incubated at room temperature for about 10 min. • Started the experiment at the FLIPR^TETRA by injecting 10 μL/w of 3× concentrated test compounds and controls in Ca^2+ free Tyrode's buffer. Monitored the kinetic response over a period of 300 seconds. • Final DMSO concentration: 0.5%
# Data from FLIPR^TETRA measurements were analyzed with the Genedata Screener© software.
# T1 sequence (Q9GZU1 whole entry): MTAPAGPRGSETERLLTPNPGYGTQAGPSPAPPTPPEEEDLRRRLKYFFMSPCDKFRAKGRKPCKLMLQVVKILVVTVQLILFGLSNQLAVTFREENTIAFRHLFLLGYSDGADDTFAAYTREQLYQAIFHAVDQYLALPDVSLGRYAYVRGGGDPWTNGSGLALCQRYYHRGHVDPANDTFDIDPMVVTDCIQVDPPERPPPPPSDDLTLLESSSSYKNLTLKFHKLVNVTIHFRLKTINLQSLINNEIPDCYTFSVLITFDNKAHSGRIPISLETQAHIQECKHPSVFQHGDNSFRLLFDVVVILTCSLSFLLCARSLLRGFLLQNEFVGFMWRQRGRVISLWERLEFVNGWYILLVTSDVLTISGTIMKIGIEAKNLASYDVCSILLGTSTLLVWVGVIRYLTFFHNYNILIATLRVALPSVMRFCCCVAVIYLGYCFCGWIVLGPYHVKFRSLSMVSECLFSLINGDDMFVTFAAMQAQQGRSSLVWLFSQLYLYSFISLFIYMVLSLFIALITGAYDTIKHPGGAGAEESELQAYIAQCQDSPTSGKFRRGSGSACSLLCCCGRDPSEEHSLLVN
row,Structure (SMILES),EC50 [µM]
1,"O=C(Nc1ccc(OC2CC3C(C2)C3(F)F)c(F)c1)c1nc(N2CCCC2)oc1CC(F)(F)F (centres unmarked) [Example 46, N-[4-({6,6-difluorobicyclo[3.1.0]hexan-3-yl}oxy)-3-fluorophenyl]-2-(pyrrolidin-1-yl)-5-(2,2,2-trifluoroethyl)oxazole-4-carboxamide]",1 to 10
2,"O=C(Nc1ccc(O[C@@H]2COCC2(F)F)c(F)c1)c1nc(N2CCCC2)oc1CC(F)(F)F [Example 49, (R)—N-(4-((4,4-difluorotetrahydrofuran-3-yl)oxy)-3-fluorophenyl)-2-(pyrrolidin-1-yl)-5-(2,2,2-trifluoroethyl)oxazole-4-carboxamide]",1 to 10
3,"O=C(Nc1ccc(OC2CCC3CC32)c(F)c1)c1nc(N2CCCC2)oc1CC(F)(F)F (centres unmarked) [Example 51, N-(4-{bicyclo[3.1.0]hexan-2-yloxy}-3-fluorophenyl)-2-(pyrrolidin-1-yl)-5-(2,2,2-trifluoroethyl)oxazole-4-carboxamide]",1 to 10
4,"O=C(Nc1ccc(OC2CCCC23CC3)c(F)c1)c1nc(N2CCCC2)oc1CC(F)(F)F (centres unmarked) [Example 52, N-(3-fluoro-4-(spiro[2.4]heptan-4-yloxy)phenyl)-2-(pyrrolidin-1-yl)-5-(2,2,2-trifluoroethyl)oxazole-4-carboxamide]",1 to 10
5,"O=C(Nc1ccc(OCC2CCCC2(F)F)c(F)c1)c1nc(N2CCCC2)oc1CC(F)(F)F (centres unmarked) [Example 53, N-{4-[(2,2-difluorocyclopentyl)methoxy]-3-fluorophenyl}-2-(pyrrolidin-1-yl)-5-(2,2,2-trifluoroethyl)oxazole-4-carboxamide]",1 to 10
6,"O=C(Nc1ccc(OC2CCOCC2)c(F)c1)c1nc(N2CCCC2)oc1CC(F)(F)F [Example 56, N-[3-fluoro-4-(oxan-4-yloxy)phenyl]-2-(pyrrolidin-1-yl)-5-(2,2,2-trifluoroethyl)oxazole-4-carboxamide]",1 to 10
7,"O=C(Nc1ccc(OC2CCCC2)c(F)c1)c1nc(N2CCC3(CC3)C2)oc1CC(F)(F)F [Example 57, N-(4-(cyclopentyloxy)-3-fluorophenyl)-2-(5-azaspiro[2.4]heptan-5-yl)-5-(2,2,2-trifluoroethyl)oxazole-4-carboxamide]",1 to 10
8,"O=C(Nc1ccc(OCCC(F)(F)F)c(F)c1)c1nc(N2CCCC2)oc1CC(F)(F)F [Example 58, N-(3-fluoro-4-(3,3,3-trifluoropropoxy)phenyl)-2-(pyrrolidin-1-yl)-5-(2,2,2-trifluoroethyl)oxazole-4-carboxamide]",1 to 10
9,"CCC(C)Oc1ccc(NC(=O)c2nc(N3CCCC3)oc2CC(F)(F)F)cc1F (centres unmarked) [Example 59, N-(4-(sec-butoxy)-3-fluorophenyl)-2-(pyrrolidin-1-yl)-5-(2,2,2-trifluoroethyl)oxazole-4-carboxamide]",1 to 10
10,"CC(CC(F)(F)F)Oc1ccc(NC(=O)c2nc(N3CCCC3)oc2CC(F)(F)F)cc1F (centres unmarked) [Example 60, N-(3-fluoro-4-((4,4,4-trifluorobutan-2-yl)oxy)phenyl)-2-(pyrrolidin-1-yl)-5-(2,2,2-trifluoroethyl) oxazole-4-carboxamide]",1 to 10
11,"O=C(Nc1ccc(OC2CCCC2)c(F)c1)c1nc(N2C[C@H]3CCO[C@H]3C2)oc1CC(F)(F)F [Example 61, N-(4-(cyclopentyloxy)-3-fluorophenyl)-2-((3aR,6aR)-hexahydro-5H-furo[2,3-c]pyrrol-5-yl)-5-(2,2,2-trifluoroethyl)oxazole-4-carboxamide]",1 to 10
12,"O=C(Nc1ccc(OC2CCCC2)c(F)c1)c1nc(N2CCCC2)oc1CC(F)(F)F [Example 62, N-[4-(cyclopentyloxy)-3-fluorophenyl]-2-(pyrrolidin-1-yl)-5-(2,2,2-trifluoroethyl)oxazole-4-carboxamide]",1 to 10
13,"O=C(Nc1ccc(OC2COCC2(F)F)c(F)c1)c1nc(N2CCC3(CC3)C2)oc1CC(F)(F)F (centres unmarked) [Example 63, N-(4-((4,4-difluorotetrahydrofuran-3-yl)oxy)-3-fluorophenyl)-2-(5-azaspiro[2.4]heptan-5-yl)-5-(2,2,2-trifluoroethyl)oxazole-4-carboxamide]",1 to 10
14,"O=C(Nc1ccc(OC2CCCCC2)c(F)c1)c1nc(N2CCCC2)oc1CC(F)(F)F [Example 65, N-(4-(cyclohexyloxy)-3-fluorophenyl)-2-(pyrrolidin-1-yl)-5-(2,2,2-trifluoroethyl)oxazole-4-carboxamide]",1 to 10
15,"O=C(Nc1ccc(OC2CCCOC2)c(F)c1)c1nc(N2CCCC2)oc1CC(F)(F)F (centres unmarked) [Example 66, N-[3-fluoro-4-(oxan-3-yloxy)phenyl]-2-(pyrrolidin-1-yl)-5-(2,2,2-trifluoroethyl)oxazole-4-carboxamide]",1 to 10
16,"O=C(Nc1ccc(OC2CCCC23CCC3)c(F)c1)c1nc(N2CCCC2)oc1CC(F)(F)F (centres unmarked) [Example 67, N-(3-fluoro-4-{spiro[3.4]octan-5-yloxy}phenyl)-2-(pyrrolidin-1-yl)-5-(2,2,2-trifluoroethyl)oxazole-4-carboxamide]",1 to 10
17,"O=C(Nc1ccc(O[C@H]2COCC2(F)F)c(F)c1)c1nc(N2CCCC2)oc1CC(F)(F)F [Example 69, (S)—N-(4-((4,4-difluorotetrahydrofuran-3-yl)oxy)-3-fluorophenyl)-2-(pyrrolidin-1-yl)-5-(2,2,2-trifluoroethyl)oxazole-4-carboxamide]",0.01 to 1
18,"CC1(C)CN(c2nc(C(=O)Nc3cc(F)c(OC4COCC4(F)F)c(F)c3)c(CC(F)(F)F)o2)C1 (centres unmarked) [Example 70, N-{4-[(4,4-difluorotetrahydrofuran-3-yl)oxy]-3,5-difluorophenyl}-2-(3,3-dimethylazetidin-1-yl)-5-(2,2,2-trifluoroethyl)oxazole-4-carboxamide]",0.01 to 1
19,"CN(c1ccc(NC(=O)c2nc(N3CC4(C3)CC(F)(F)C4)oc2CC(F)(F)F)cc1F)C1CCCC1 [Example 79, N-{4-[cyclopentyl(methyl)amino]-3-fluorophenyl}-2-{6,6-difluoro-2-azaspiro[3.3]heptan-2-yl}-5-(2,2,2-trifluoroethyl)oxazole-4-carboxamide]",1 to 10
20,"CN(c1ccc(NC(=O)c2nc(N3CCCC3)oc2CC(F)(F)F)cc1F)C1CC2CC2C1 (centres unmarked) [Example 80, N-(4-{bicyclo[3.1.0]hexan-3-yl(methyl)amino}-3-fluorophenyl)-2-(pyrrolidin-1-yl)-5-(2,2,2-trifluoroethyl)oxazole-4-carboxamide]",1 to 10
21,"CN(c1c(F)cc(NC(=O)c2nc(N3CCCC3)oc2CC(F)(F)F)cc1F)C1CCCC1(F)F (centres unmarked) [Example 81, N-{4-[(2,2-difluorocyclopentyl)(methyl)amino]-3,5-difluorophenyl}-2-(pyrrolidin-1-yl)-5-(2,2,2-trifluoroethyl)oxazole-4-carboxamide]",1 to 10
22,"O=C(Nc1ccc(OC2CCCC2)c(O)c1)c1nc(N2CCCC2)oc1CC(F)(F)F [Example 85, N-(4-(cyclopentyloxy)-3-hydroxyphenyl)-2-(pyrrolidin-1-yl)-5-(2,2,2-trifluoroethyl)oxazole-4-carboxamide]",1 to 10
23,"O=C(Nc1ccc(OC2CCCC2(F)F)c(O)c1)c1nc(N2CCCC2)oc1CC(F)(F)F (centres unmarked) [Example 86, N-{4-[(2,2-difluorocyclopentyl)oxy]-3-hydroxyphenyl}-2-(pyrrolidin-1-yl)-5-(2,2,2-trifluoroethyl)-1,3-oxazole-4-carboxamide]",1 to 10
